# Measurements published in PubChem BioAssay AID1963421 (Molecular Pharmacology Branch, DTP, NCI, 2024).
# Where “and” joins values, the source holds several entries; their conditions need not be identical. Equal values may be shown once.
# Tested on: 519858-162-T-J1-PDC complex spheroid growth, % test/control
# Test: Anticancer human tumor 519858-162-T-J1-PDC patient-derived colon adenocarcinoma cell line growth inhibition [Asc]
# Details: for viability, T/C: stronger effect = lower value
# Outline: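 Complex spheroids combining tumor cells with HUVEC endothelial cells and human MSCs, at 37 degrees C, 5% CO2; agents tested alone or combined, half-log dilutions from at or near clinical Cmax, or 10 microM if Cmax unknown.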
# 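Also: seven day drug exposure begun three days after spheroid seeding.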
# 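For viability, T/C in this document: 100% = DMSO vehicle wells and lower values mean less viable spheroid.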
structure (smiles),measurement,setting,value
O=C(c1cc(Cc2n[nH]c(=O)c3ccccc23)ccc1F)N1CCN(C(=O)C2CC2)CC1 + CCN1C(C(=O)NC23CCC(C(=O)O)(CC2)CC3)C(c2cccc(Cl)c2F)C2(C(=O)Nc3cc(Cl)ccc32)C12CCCCC2,IC50,"curve of first compound, second compound 0.00949 µM",> 10 µM
same,IC50,"curve of first compound, second compound 0.03 µM",> 10 µM
same,IC50,"curve of first compound, second compound 0.0949 µM",> 10 µM
same,IC50,"curve of first compound, second compound 0.3 µM",> 10 µM
same,IC50,"curve of first compound, second compound 0.949 µM",> 10 µM
same,IC50,"curve of first compound, second compound 3 µM",> 10 µM
same,"viability, T/C","second compound 0.00949 µM, first compound 0.0316 µM",106%
same,"viability, T/C","second compound 0.00949 µM, first compound 0.1 µM",81.9%
same,"viability, T/C","second compound 0.00949 µM, first compound 0.316 µM",101%
same,"viability, T/C","second compound 0.00949 µM, first compound 1 µM",81%
same,"viability, T/C","second compound 0.00949 µM, first compound 3.16 µM",90.8%
same,"viability, T/C","second compound 0.00949 µM, first compound 10 µM",79.4%
same,"viability, T/C","second compound 0.03 µM, first compound 0.0316 µM",130%
same,"viability, T/C","second compound 0.03 µM, first compound 0.1 µM",82.9%
same,"viability, T/C","second compound 0.03 µM, first compound 0.316 µM",127%
same,"viability, T/C","second compound 0.03 µM, first compound 1 µM",93.2%
same,"viability, T/C","second compound 0.03 µM, first compound 3.16 µM",75.2%
same,"viability, T/C","second compound 0.03 µM, first compound 10 µM",74.9%
same,"viability, T/C","second compound 0.0949 µM, first compound 0.0316 µM",117%
same,"viability, T/C","second compound 0.0949 µM, first compound 0.1 µM",103%
same,"viability, T/C","second compound 0.0949 µM, first compound 0.316 µM",101%
same,"viability, T/C","second compound 0.0949 µM, first compound 1 µM",77%
same,"viability, T/C","second compound 0.0949 µM, first compound 3.16 µM",92.7%
same,"viability, T/C","second compound 0.0949 µM, first compound 10 µM",100%
same,"viability, T/C","second compound 0.3 µM, first compound 0.0316 µM",163%
same,"viability, T/C","second compound 0.3 µM, first compound 0.1 µM",94.9%
same,"viability, T/C","second compound 0.3 µM, first compound 0.316 µM",99.2%
same,"viability, T/C","second compound 0.3 µM, first compound 1 µM",83.3%
same,"viability, T/C","second compound 0.3 µM, first compound 3.16 µM",85.2%
same,"viability, T/C","second compound 0.3 µM, first compound 10 µM",72.2%
same,"viability, T/C","second compound 0.949 µM, first compound 0.0316 µM",71.9%
same,"viability, T/C","second compound 0.949 µM, first compound 0.1 µM",70.6%
same,"viability, T/C","second compound 0.949 µM, first compound 0.316 µM",76.5%
same,"viability, T/C","second compound 0.949 µM, first compound 1 µM",86.5%
same,"viability, T/C","second compound 0.949 µM, first compound 3.16 µM",85.2%
same,"viability, T/C","second compound 0.949 µM, first compound 10 µM",94%
same,"viability, T/C","second compound 3 µM, first compound 0.0316 µM",63.8%
same,"viability, T/C","second compound 3 µM, first compound 0.1 µM",89.3%
same,"viability, T/C","second compound 3 µM, first compound 0.316 µM",94.7%
same,"viability, T/C","second compound 3 µM, first compound 1 µM",73.4%
same,"viability, T/C","second compound 3 µM, first compound 3.16 µM",100%
same,"viability, T/C","second compound 3 µM, first compound 10 µM",76%
C=C(F)C(=O)N1CCN(c2nc(OCC3CCCN3C)nc3c2CCN(c2cccc4cccc(Cl)c24)C3)CC1CC#N (centres undefined),"viability, T/C",compound 0.0316 µM,95.4% and 95.7% and 94%
same,"viability, T/C",compound 0.1 µM,109% and 79.9% and 106%
same,"viability, T/C",compound 0.316 µM,97% and 96.7% and 84.9%
same,"viability, T/C",compound 1 µM,89.8% and 92.8% and 78.1%
same,"viability, T/C",compound 3.16 µM,94.5% and 80.9% and 93.3%
same,"viability, T/C",compound 10 µM,97.4% and 72.3% and 43%
same,IC50,curve of compound,> 10 µM and 8.44 µM
